Source: PMC8716319 (Toxicology, 2020)

How the values were obtained:
[1] = Stability of alpha-dicarbonyl metabolites under reaction conditions; format: in vitro ADME; conditions: low (50 μM) and high (500 μM) concentrations; student's t-test p < 0.05
[2] = target: T1, microsomal epoxide hydrolase (Homo sapiens, UniProt P07099); format: in vitro ADME; conditions: 1 μM elaidamide; 40 and 400 μM substrate; HLM
T1 sequence (P07099 1-455): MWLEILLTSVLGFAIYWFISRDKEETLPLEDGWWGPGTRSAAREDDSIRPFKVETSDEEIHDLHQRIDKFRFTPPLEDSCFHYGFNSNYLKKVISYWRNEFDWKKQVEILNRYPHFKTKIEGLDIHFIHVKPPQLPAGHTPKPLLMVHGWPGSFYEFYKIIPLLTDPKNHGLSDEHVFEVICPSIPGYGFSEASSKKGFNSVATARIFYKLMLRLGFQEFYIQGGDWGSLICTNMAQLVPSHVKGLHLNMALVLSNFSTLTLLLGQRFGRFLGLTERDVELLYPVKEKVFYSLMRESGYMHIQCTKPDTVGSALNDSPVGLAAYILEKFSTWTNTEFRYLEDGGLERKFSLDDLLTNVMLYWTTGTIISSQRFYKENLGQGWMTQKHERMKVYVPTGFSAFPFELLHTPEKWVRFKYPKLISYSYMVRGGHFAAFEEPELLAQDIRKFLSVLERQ

inhibition of alpha-dicarbonyl formation by elaidamide [2] [%]	SMILES	depletion under reaction conditions [1]
–	O=CC=O [glyoxal]	no significant depletion
–	CC(=O)C=O [methylglyoxal]	only significant depletion after 60 min
90	CN1C(C(=O)Nc2nccs2)=C(O)c2ccccc2S1(=O)=O [sudoxicam, N-(2-thiazolyl)-4-hydroxy-2-methyl-2H-1,2-benzothiazine-3-carboxamide 1,1-dioxide]	–
